According to patent publication US20040138462A1, “Aminoalcohol derivatives” (priority 2001, published 2004):

Tests used:
[1] = test system: increase in intravesical pressure induced by carbachol in anesthetized dog; test: Effect on the increase in intravesical pressure induced by carbachol in anesthetized dog; type: in vivo, Beagle dogs; conditions: intraduodenal administration
Experimental: Effect on the increase in intravesical pressure induced by carbachol in anesthetized dog
Female Beagle dogs weighing 8.0-15.0 kg were fasted for 24 hours and maintained under halothane anesthesia. A 12F Foley catheter was lubricated with water soluble jelly, inserted into the urethral orifice and advanced approximately 10 cm until the balloon tip was placed well inside the bladder. The balloon was then inflated with 5 ml of room air and catheter slowly withdrawn just part the first resistance that is felt at the bladder neck. Urine was completely drained out through the catheter, and 30 ml of biological saline was infused. The catheter was connected to pressure transducer, and intravesical pressure was continuously recorded. Intraduodenal administration of test compound (I) inhibited carbachol (1.8 μg/kg)-induced increase in intravesical pressure (IVP).

SMILES	melting point [°C]	% inhibition of carbachol-induced increase in IVP ([1]; 0.32 mg/kg, female Beagle dogs under halothane anesthesia, carbachol 1.8 μg/kg) [%]	carbachol (1.8 μg/kg)-induced increase in intravesical pressure (IVP) ([1]; anesthetized female Beagle dogs)
CCOC(=O)COc1ccc(S(=O)(=O)c2ccc(CCNC[C@H](O)c3cccc(Cl)c3)cc2)cc1.Cl	198 to 200		
O=S(=O)(c1ccccc1)c1ccc(C[C@@H](CO)NC[C@H](O)COc2ccccc2)cc1 [Test Compound (1), (2S)-2-[((2S)-2-Hydroxy-3-phenoxypropyl)amino]-3-[4-(phenylsulfonyl)phenyl]-1-propanol]		30	inhibited
